Source: PubChem BioAssay (NCI)
Values joined by “and” are separate entries in the source; they are usually repeats but may differ in a detail not shown here. Identical values can stand only once.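 Values below derive from 48-hour exposures of cells grown in 96-well plates, with endpoints linearly interpolated between the two concentrations bracketing the appropriate inhibition level. GI50 = concentration required for 50% inhibition of growth. TGI denotes the concentration required for complete inhibition of growth.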

test system: MDA-MB-468 breast; assay: NCI anticancer screen, dose series, 48 h

SMILES | GI50 | TGI
C#COc1cccc(Nc2ncnc3cc(NC(=O)[C@H](C)Cl)ccc23)c1 | 11.7 µM | 61 µM
COc1ccc(/C=C\c2cc(OC)c(OC)c(OC)c2)cc1OCC(=O)Nc1ccc2nc(C)sc2c1 | 2.39 µM | 14 µM
CNS(=O)(=O)OCC1OC(n2cnc3c(N)ncnc32)C(O)C1O (centres undefined) | 28.9 µM | > 100 µM
O=S(=O)(Nc1ccc(F)c(Cl)c1)c1ccc(-c2cnc(C3CC3)o2)cc1 | 0.0982 µM | 1.63 µM
CCCCCCCC(=O)OCC(=O)[C@]1(O)Cc2c(O)c3c(c(O)c2[C@@H](OC2CC(N)C(O)C(C)O2)C1)C(=O)c1c(OC)cccc1C3=O (some centres undefined) | 0.0398 µM | 0.301 µM
Nc1nc(N)c2cc(Sc3cccc(C(F)(F)F)c3)ccc2n1 | 1.02 µM | 2.55 µM
O=C(C[P+](c1ccccc1)(c1ccccc1)c1ccccc1)C[P+](c1ccccc1)(c1ccccc1)c1ccccc1 | 0.165 µM | 0.508 µM
CN1CCN(CCOc2cc(OC3CCOCC3)c3c(Nc4c(Cl)ccc5c4OCO5)ncnc3c2)CC1 | 0.773 µM and 0.548 µM | 3.49 µM and 7.54 µM
CN1CCN(Cc2ccc3c(NNC(=O)c4ccccc4)nc4cc(F)ccc4n23)CC1 | 0.237 µM | 1.65 µM
ClCc1cccc(CSc2ncnc3c2ncn3Cc2cccc(CCl)c2)c1 | 1.3 µM | 2.85 µM
COc1cc(NCCN=C(N)NC(N)=NC(C)C)c2ncccc2c1 | 0.162 µM | 0.603 µM
Cn1cc(-c2nn3cc(-c4ccncc4)nc3s2)c2cc(Cl)ccc21 | 2.19 µM | 7.84 µM
COc1ccc(C2C=C(c3ccc(Cl)cc3)N=C3SC=C(C)N32)c(Br)c1 (centres undefined) | 1.91 µM | 6.13 µM
O=C(/C=C/C12c3ccccc3C(c3ccccc31)C1C(=O)NC(=O)C12)c1ccc(Cl)cc1 (centres undefined) | 1.7 µM | 3.47 µM
NC(=Nc1ccc(N)cc1)C(N)=Nc1ccc(N)cc1 | > 100 µM | > 100 µM
Cc1ccc(-c2nc(-c3cn(C)c4ncccc34)cs2)cc1 | 2.66 µM | 9.92 µM
COc1cc2c(=O)n(CCN(C)C)c3c4cc5c(cc4ccc3c2cc1OC)OCO5 | 0.115 µM | 0.303 µM
C[C@@H]1COCCN1c1cc(C2([S@@](C)(=N)=O)CC2)nc(-c2ccnc3[nH]ccc23)n1 | 2.73 µM | 25.6 µM
CCOC(=O)c1cnn2c3ccccc3n(S(=O)(=O)c3ccc(OC)cc3)c12 | 0.324 µM | > 100 µM
O=C(Nc1ccccc1O)c1ccc(NS(=O)(=O)c2cccc3cccnc23)cc1 | 0.679 µM | 3.75 µM
N#CN1CC[C@H](C(=O)Nc2cc3cc(C(N)=O)ccc3cn2)C1 | < 0.0146 µM | 0.0289 µM
Cc1ccc(-c2nc([P+](c3ccccc3)(c3ccccc3)c3ccccc3)c(Nc3ccccc3)o2)cc1 | 0.232 µM | 0.719 µM
O=C(CC(=O)c1cccc(Cl)c1)c1cccc(Cl)c1 | 1.77 µM | 8.76 µM

SMILES | GI50 | TGI
O=C(Nc1cc(Oc2cc(F)c(NC(=O)C3(C(=O)Nc4ccc(F)cc4)CC3)cc2F)ccn1)C1CC1 | 3.17 µM | 6.14 µM
COc1ccc(Cn2cc3c(c2-c2ccccc2)CCc2cnoc2-3)cc1N | 0.039 µM | 0.385 µM
c1ccc([As]=[As]c2ccccc2)cc1 (centres undefined) | 0.541 µM | 2.31 µM
COc1cc(/C=C/c2cc(/C=C/c3ccc(O)c(OC)c3)n(C(=O)Nc3ccc(Cl)cc3)n2)ccc1O | 0.31 µM | 1.82 µM
Cc1ccc(NCCN(C)C)c2c(=O)c3ccccc3sc12 | 1.67 µM | 3.26 µM
Cc1cc(Nc2cc(N3CCN(C)CC3)nc(Sc3ccc(NC(=O)C4CC4)cc3)n2)n[nH]1 | 0.24 µM | > 10 µM
COc1cccc(C2C3=C(COC3=O)N(CCO)c3cc4c(cc32)OCO4)c1 (centres undefined) | 0.131 µM | –
NC(=S)N=Nc1c(O)c2ccccc2c2ccccc12 | 44.3 µM | > 100 µM
CCOC(=O)/C=C/C(=O)[C@H](CC(C)C)NC(=O)[C@H](Cc1ccccc1)NC(=O)OCc1ccccc1 | 2.36 µM | 5.07 µM
Cc1cc(Cl)ccc1Nc1nc(C(F)(F)F)ccc1C(=O)N/N=C/c1ccccc1Cl | 1.88 µM | > 100 µM
COc1cccc(/C(C)=N/NC(=O)CSc2nc3ccccc3c(=O)n2CCc2ccc(S(N)(=O)=O)cc2)c1 | 3.16 µM | 8.76 µM
CCS(=O)(=O)c1ccc(OC)c(Nc2ncc(-c3ccccc3Cl)o2)c1 | 6.53 µM | 19.6 µM
Cc1cnc(Nc2ccc(N3CCN(C)CC3)cc2)nc1Nc1ccc(Cl)c(NS(=O)(=O)C(C)(C)C)c1 | 0.153 µM | 2.2 µM
C=C1C(=O)O[C@H]2[C@H]1CC/C(COC(=O)NCCc1c[nH]c3ccc(Cl)cc13)=C\CC[C@@]1(C)O[C@@H]21 | 1.65 µM | 3.31 µM
Nc1nc(=O)n([C@@H]2CS[C@H](CO)O2)cc1F | > 100 µM | > 100 µM
CC(=O)c1cc(C(=O)c2ccc3c(c2)Sc2ccccc2N3)c2c(C)cccn12 | 0.175 µM | > 96 µM
CCOC(=O)c1ccc2c(c1)[n+](=O)c(C(C)=O)c(C(F)(F)F)n2[O-] | 1.59 µM | 3.29 µM
COc1cc(C2C3=C(COC3=O)N(CCO)c3cc4c(cc32)OCO4)cc(OC)c1O (centres undefined) | 0.819 µM | 2.62 µM
Cc1c(C(N)=O)sc2c1c(=O)n(Cc1ccccc1)c1nnc(-c3ccc(Br)cc3)n21 | 2.04 µM | 6.94 µM
CCOC(=O)c1c(NCC(=O)Nc2cccc([N+](=O)[O-])c2)sc2c1CCCC2 | 0.333 µM | 1.43 µM
O=C(NCCNc1nccc(-c2c(-c3cccc(O)c3)nc3sccn23)n1)c1ccccc1 | 3.6 µM | 28.7 µM
COc1ccccc1NS(=O)(=O)c1ccc2oc(SC(C)C)nc2c1 | 2.38 µM | 17.6 µM
